Experimental data taken from publication PMC6508677, “Identification of druggable small molecule antagonists of the Plasmodium falciparum hexose transporter PfHT and assessment of ligand access to the glucose permeation pathway via FLAG-mediated protein engineering” (PLoS ONE, 2019).
“And” between values parts separate entries of the source, which are not always exact repeats. Equal entries are not always repeated. Where two headings read alike, the source gives them in different places.

Target: T1, FTPfHT (Plasmodium falciparum, UniProt Q7KWJ5)
T1 sequence (Q7KWJ5 1-504): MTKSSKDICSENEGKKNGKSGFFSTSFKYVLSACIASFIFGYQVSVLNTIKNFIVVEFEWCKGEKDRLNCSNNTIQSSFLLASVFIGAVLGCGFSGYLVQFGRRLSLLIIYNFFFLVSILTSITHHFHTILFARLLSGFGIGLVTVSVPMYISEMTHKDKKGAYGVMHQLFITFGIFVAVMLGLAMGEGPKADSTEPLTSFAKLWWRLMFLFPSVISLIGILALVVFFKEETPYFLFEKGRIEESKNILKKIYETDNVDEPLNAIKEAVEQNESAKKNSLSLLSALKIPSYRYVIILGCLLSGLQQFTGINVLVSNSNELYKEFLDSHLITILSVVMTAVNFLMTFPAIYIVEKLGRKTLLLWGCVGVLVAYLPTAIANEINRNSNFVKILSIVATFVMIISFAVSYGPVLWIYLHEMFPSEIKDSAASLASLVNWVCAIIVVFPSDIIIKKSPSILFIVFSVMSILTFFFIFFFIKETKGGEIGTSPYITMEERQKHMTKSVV
Assay: [3H]-D-glucose specific uptake into FTPfHT-containing liposomes
Type: biochemical
Settings: for D-Glc - L-Glc Uptake, single experiments / D-Glc - L-Glc Uptake, Ave: liposomes; for D-Glc - L-Glc Uptake, Ave: average of Expt 1-3
Excerpt: SalI and NotI restriction sites were introduced to the 5’ and 3’ ends, respectively, of FTPfHT cDNA via PCR and then this construct was placed into the multiple cloning site of the pACMV-tetO vector [25]. Stable tetracycline-inducible HEK293S GnTI cell lines expressing FTPfHT were generated using the same protocol previously described for FTGLUT4 [26]. FTPfHT protein was solubilized from FTPfHT/HEK293S GnTI cell pellets with lauryl maltose neopentyl glycol (LMNG) detergent and purified using M2 anti-FLAG affinity gel (Sigma) as described in [27]. The FLAG tag was cleaved using tobacco etch virus (TEV) protease (plasmid purchased from Addgene, Cambridge, MA) at a ratio of 1:20 TEV/PfHT overnight at 4°C in the presence of 1 mM DTT. Based on SDS-PAGE and Blue BANDit protein stain (Amresco, Solon, OH), PfHT protein after FLAG elution was ~95% pure.
Liposomes containing PfHT were made according to Hresko et al.. Briefly, purified PfHT protein in LMNG micelles described above were mixed with Triton X-100 destabilized eggPC/POPA/POPE (70:15:15) large unilamellar vesicles (lipid to protein ratio of 100–125:1 (w/w)). By slowly removing the detergents with Amberlite XAD-2 beads (Supelco Analytical, Bellefonte, PA), PfHT protein spontaneously inserts into the liposomes. After removal of the beads, liposomes were collected by ultracentrifugation, resuspended in buffer, and flash-frozen with liquid nitrogen. Frozen liposomes containing purified PfHT protein were thawed at room temperature followed by extrusion through a 200-nm polycarbonate filter to create liposomes of uniform size. Uptake was started by adding [^3H]-D-glucose (1 μCi/ml, 200 μM cold D-glucose) to PfHT proteoliposomes at room temperature. Transport was stopped at different times with 5 ml of ice-cold quench buffer (50 mM potassium phosphate, 130 mM KCl, pH 7.4) and then filtered by vacuum on a 0.2-μm mixed cellulose ester filter (Advantec, Durham, NC). Filters were subsequently washed with an additional 10 ml of quench buffer. Scintillation fluid (Filter Count, PerkinElmer, Waltham, MA) was added to the filters and the radioactivity counted. [^3H]-L-glucose (1 μCi/ml, 200 μM cold L-glucose) was used to determine nonspecific transport. Specific uptake was calculated by subtracting nonspecific [^3H]-L-glucose from [^3H]-D-glucose uptake. Uptake was normalized to the amount of transporter per reaction, determined by analyzing aliquots of transporter-containing liposomes along with a BSA standard curve on an SDS-polyacrylamide gel stained with Blue Bandit protein stain and quantified using an Odyssey infrared imaging system (LI-COR Biosciences, Lincoln, NB). Data were fitted by least squares nonlinear regression analysis using GraphPad Prism 6.0.

Cc1ccc(S(=O)(=O)CCNC(=O)c2c(-c3c(Cl)cccc3Cl)noc2C)cc1 [WU-1, 3-(2,6-dichlorophenyl)-5-methyl-N-[2-(4-methylbenzenesulfonyl)ethyl]-1,2-oxazole-4-carboxamide]
IC50 (D-Glc - L-Glc uptake in reconstituted liposomes, Expt 1, Expt 2, Expt 3, read-out: IC50, single experiments): 12.4 µM and 18.8 µM and 8.31 µM
IC50 (S3 Fig, read-out: IC50 for specific D-glucose uptake into FTPfHT liposomes): 13.2 ± 3.1 µM
D-Glc - L-Glc Uptake, single experiments (WU-1 0.001 µM, Expt 1, Expt 2, Expt 3): 36.56 pmol/µg PfHT and 54.37 pmol/µg PfHT and 37.47 pmol/µg PfHT
D-Glc - L-Glc Uptake, Ave (WU-1 0.001 µM): 42.8 pmol/µg PfHT
D-Glc - L-Glc Uptake, single experiments (WU-1 0.625 µM, Expt 1, Expt 2, Expt 3): 44.52 pmol/µg PfHT and 43.4 pmol/µg PfHT and 46.2 pmol/µg PfHT
D-Glc - L-Glc Uptake, Ave (WU-1 0.625 µM): 44.7 pmol/µg PfHT
D-Glc - L-Glc Uptake, single experiments (WU-1 1.25 µM, Expt 1, Expt 2, Expt 3): 39.01 pmol/µg PfHT and 40.61 pmol/µg PfHT and 38.03 pmol/µg PfHT
D-Glc - L-Glc Uptake, Ave (WU-1 1.25 µM): 39.22 pmol/µg PfHT
D-Glc - L-Glc Uptake, single experiments (WU-1 2.5 µM, Expt 1, Expt 2, Expt 3): 43.49 pmol/µg PfHT and 43.42 pmol/µg PfHT and 42.09 pmol/µg PfHT
D-Glc - L-Glc Uptake, Ave (WU-1 2.5 µM): 43 pmol/µg PfHT
D-Glc - L-Glc Uptake, single experiments (WU-1 5 µM, Expt 1, Expt 2, Expt 3): 32.42 pmol/µg PfHT and 25.14 pmol/µg PfHT and 27.92 pmol/µg PfHT
D-Glc - L-Glc Uptake, Ave (WU-1 5 µM): 28.49 pmol/µg PfHT
D-Glc - L-Glc Uptake, single experiments (WU-1 10 µM, Expt 1, Expt 2, Expt 3): 23.96 pmol/µg PfHT and 25.01 pmol/µg PfHT and 20.67 pmol/µg PfHT
D-Glc - L-Glc Uptake, Ave (WU-1 10 µM): 23.21 pmol/µg PfHT
D-Glc - L-Glc Uptake, Ave (WU-1 20 µM): 17.17 pmol/µg PfHT
D-Glc - L-Glc Uptake, single experiments (WU-1 40 µM, Expt 1, Expt 2, Expt 3): 10.91 pmol/µg PfHT and 13.9 pmol/µg PfHT and 10.43 pmol/µg PfHT
D-Glc - L-Glc Uptake, Ave (WU-1 40 µM): 11.75 pmol/µg PfHT
D-Glc - L-Glc Uptake, single experiments (WU-1 80 µM, Expt 1, Expt 2, Expt 3): 3.31 pmol/µg PfHT and 3.52 pmol/µg PfHT and 3.4 pmol/µg PfHT
D-Glc - L-Glc Uptake, Ave (WU-1 80 µM): 3.41 pmol/µg PfHT
D-Glc - L-Glc Uptake, single experiments (WU-1 160 µM, Expt 1, Expt 2, Expt 3): 4.44 pmol/µg PfHT and 4.32 pmol/µg PfHT and 4.15 pmol/µg PfHT
D-Glc - L-Glc Uptake, Ave (WU-1 160 µM): 4.3 pmol/µg PfHT
